The text below walks through data of ChEMBL document CHEMBL1137911, “Synthesis and evaluation of 4-triazolylflavans as new aromatase inhibitors” (Bioorg Med Chem Lett, 2004).

Broadly, the IC50 is the concentration that inhibits the measured activity by half.

For series [1], the target named is T1, Aromatase (Homo sapiens, UniProt P11511).
T1 sequence (P11511 whole entry): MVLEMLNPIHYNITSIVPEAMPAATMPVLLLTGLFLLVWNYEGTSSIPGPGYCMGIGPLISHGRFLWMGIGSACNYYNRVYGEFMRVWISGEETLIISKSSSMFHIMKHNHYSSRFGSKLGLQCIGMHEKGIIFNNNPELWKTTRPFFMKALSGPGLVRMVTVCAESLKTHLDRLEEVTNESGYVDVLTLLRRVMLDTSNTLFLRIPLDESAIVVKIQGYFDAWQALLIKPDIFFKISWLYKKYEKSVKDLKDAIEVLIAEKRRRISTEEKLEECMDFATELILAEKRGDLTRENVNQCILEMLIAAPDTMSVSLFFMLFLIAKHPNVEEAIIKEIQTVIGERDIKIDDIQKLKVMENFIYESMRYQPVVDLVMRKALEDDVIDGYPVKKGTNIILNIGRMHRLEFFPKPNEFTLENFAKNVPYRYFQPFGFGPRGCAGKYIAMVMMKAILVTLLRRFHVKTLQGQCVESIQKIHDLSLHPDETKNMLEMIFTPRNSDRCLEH
As to the kind of experiment: Relative potency for inhibition of aromatase binding compared to aminoglutethimide.

The target in series [2] is T1, Aromatase. Put plainly: In vitro inhibition of [1,2,6,7-3H]androstenedione binding to Aromatase of human placental microsomes.

In the case of `COc1ccc2c(c1)OC(c1ccccc1)CC2n1cnnc1` (stereo not drawn), the “Relative Potency” value in series [1] is 0.16. Moreover, the IC50 in series [2] amounted to 31600 nM.

Take `COc1ccc2c(c1)OC(c1ccccc1)CC2n1cncn1` (stereo not drawn): in series [1], the “Relative Potency” value came to 3.7. In series [2], this compound displayed an IC50 of 1400 nM.

With `Oc1ccc2c(c1)OC(c1ccccc1)CC2n1cncn1` (stereo not drawn), the “Relative Potency” value in series [1] was 12.1. Moreover, in series [2], the IC50 stood at 430 nM.

Turning to `Oc1ccc2c(c1)OC(c1ccccc1)CC2n1ccnc1` (stereo not drawn), in series [1], the “Relative Potency” value came out at 126.8. Also, in series [2], the IC50 was 40 nM.
